Measured values from patent US20240209028A1, “CNP COMPOUNDS” (priority 2022, published 2024).
Starred links: 1 amine or outer side, 2 acyl side, 3 side chain; linkers in the order of their positions; H or OH if unused. Positions of bridges follow the written chain, without caps; N, C: chain ends. Residues, ends and D or L forms follow the SMILES beside them. *: point of attachment. C18 diacid = O=C(O)CCCCCCCCCCCCCCCCC(=O)*; γGlu = O=C(O)[C@H](CCC(=O)[*:2])N[*:1]; AEEA = NCCOCCOCC(=O)O

Target: T1, human natriuretic peptide receptor 2 (hNPR2) (Homo sapiens, UniProt P20594)
T1 construct: expressed in transfected cells; host or cells: HEK293 (ATCC CRL-1573), clone 35, co-transfected with pGloSensor-42F
T1 sequence (P20594 23-1047): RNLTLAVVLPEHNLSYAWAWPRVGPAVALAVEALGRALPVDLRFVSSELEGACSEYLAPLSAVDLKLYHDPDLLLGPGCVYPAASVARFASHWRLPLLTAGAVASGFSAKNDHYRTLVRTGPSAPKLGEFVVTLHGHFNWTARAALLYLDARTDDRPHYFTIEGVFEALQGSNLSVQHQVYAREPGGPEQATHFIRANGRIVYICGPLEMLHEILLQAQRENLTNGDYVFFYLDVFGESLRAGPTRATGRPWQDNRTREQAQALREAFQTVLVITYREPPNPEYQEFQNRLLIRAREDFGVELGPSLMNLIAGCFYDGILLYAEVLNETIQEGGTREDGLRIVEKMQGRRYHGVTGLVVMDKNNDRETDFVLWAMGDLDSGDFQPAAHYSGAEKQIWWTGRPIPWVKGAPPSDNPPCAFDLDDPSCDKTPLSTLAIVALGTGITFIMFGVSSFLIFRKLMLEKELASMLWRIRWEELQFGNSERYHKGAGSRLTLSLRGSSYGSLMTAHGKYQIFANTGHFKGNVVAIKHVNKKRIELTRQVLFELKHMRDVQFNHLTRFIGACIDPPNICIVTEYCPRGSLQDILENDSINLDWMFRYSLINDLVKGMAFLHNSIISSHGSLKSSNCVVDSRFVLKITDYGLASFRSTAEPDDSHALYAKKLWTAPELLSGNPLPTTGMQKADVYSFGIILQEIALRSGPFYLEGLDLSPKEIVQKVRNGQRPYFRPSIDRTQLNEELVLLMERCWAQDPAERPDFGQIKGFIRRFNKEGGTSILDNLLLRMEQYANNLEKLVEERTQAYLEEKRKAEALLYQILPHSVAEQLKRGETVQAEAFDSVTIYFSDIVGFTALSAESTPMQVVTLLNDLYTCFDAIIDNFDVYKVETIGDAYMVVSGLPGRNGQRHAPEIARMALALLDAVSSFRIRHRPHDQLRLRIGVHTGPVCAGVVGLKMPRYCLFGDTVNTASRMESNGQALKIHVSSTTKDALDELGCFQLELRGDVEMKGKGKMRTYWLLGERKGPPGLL
Experiment: In vitro hNPR2 activity assay (cGMP GloSensor reporter, HEK293)
Type: cell-based
Settings: 0% HSA; HEK293-hNPR2/GloSensor cells
Method in brief: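 Potency is the EC50 from a four-parameter logistic fit, also expressed relative to the in-plate CNP22 control (×100), with at least two replicates. Compounds (ten concentrations, […], HSA-free diluent with 1% OVA, 0.01% Tween20) were incubated 30 min at 37 °C on HEK293 cells co-expressing hNPR2 and a GloSensor cGMP luciferase. Luminescence detected with Bright-Glo.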

Row | Structure (SMILES) | EC50 [nM]
1 | CC[C@H](C)[C@@H]1NC(=O)[C@H](CCCNC(=N)N)NC(=O)[C@H](CCC(=O)O)NC(=O)[C@H](CC(C)C)NC(=O)[C@H](CCCCN)NC(=O)[C@H](CC(C)C)NC(=O)CNC(=O)[C@H](Cc2ccccc2)NC(=O)[C@@H](NC(=O)CNC(=O)[C@H](CCCCN)NC(=O)[C@H](CO)NC(=O)[C@H](CC(C)C)NC(=O)CNC(=O)[C@H](CCCCN)NC(=O)[C@H](CCCCN)NC(=O)[C@H](CCC(N)=O)NC(=O)[C@H](C)NC(=O)CNC(=O)[C@H](CCCCN)NC(=O)[C@H](Cc2ccc(O)cc2)NC(=O)[C@H](CCCCN)NC(=O)[C@H](CCCNC(=N)N)NC(=O)[C@H](C)NC(=O)COCCOCCNC(=O)COCCOCCNC(=O)CC[C@H](NC(=O)CCCCCCCCCCCCCCCCC(=O)O)C(=O)O)CSSC[C@@H](C(=O)O)NC(=O)CNC(=O)[C@H](CC(C)C)NC(=O)CNC(=O)[C@H](CO)NC(=O)[C@H](CC(C)C)NC(=O)[C@H](CO)NC(=O)CNC1=O [compound 0776] ({C18 diacid-γGlu-AEEA-AEEA}-ARKYKGAQKKGLSKGCFGLKLERIGSLSGLGC-OH; disulfide 16-32) | 0.58

Same assay, conditions: potency relative to CNP22 (0065)

Row | Structure (SMILES) | hNPR2 0% HSA. [EC50% rel CNP] [%]
2 | CC[C@H](C)[C@@H]1NC(=O)[C@H](CCCNC(=N)N)NC(=O)[C@H](CCC(=O)O)NC(=O)[C@H](CC(C)C)NC(=O)[C@H](CCCCN)NC(=O)[C@H](CC(C)C)NC(=O)CNC(=O)[C@H](Cc2ccccc2)NC(=O)[C@@H](NC(=O)CNC(=O)[C@H](CCCCN)NC(=O)[C@H](CO)NC(=O)[C@H](CC(C)C)NC(=O)CNC(=O)[C@H](CCCCN)NC(=O)[C@H](CCCCN)NC(=O)[C@H](CCC(N)=O)NC(=O)[C@H](C)NC(=O)CNC(=O)[C@H](CCCCN)NC(=O)[C@H](Cc2ccc(O)cc2)NC(=O)[C@H](CCCCN)NC(=O)[C@H](CCCNC(=N)N)NC(=O)[C@H](C)NC(=O)COCCOCCNC(=O)COCCOCCNC(=O)CC[C@H](NC(=O)CCCCCCCCCCCCCCCCC(=O)O)C(=O)O)CSSC[C@@H](C(=O)O)NC(=O)CNC(=O)[C@H](CC(C)C)NC(=O)CNC(=O)[C@H](CO)NC(=O)[C@H](CC(C)C)NC(=O)[C@H](CO)NC(=O)CNC1=O [compound 0776] ({C18 diacid-γGlu-AEEA-AEEA}-ARKYKGAQKKGLSKGCFGLKLERIGSLSGLGC-OH; disulfide 16-32) | 33.2
3 | CC[C@H](C)[C@@H]1NC(=O)[C@H](CCCNC(=N)N)NC(=O)[C@H](CC(=O)O)NC(=O)[C@H](CC(C)C)NC(=O)[C@@H]2CCCN2C(=O)[C@H](CC(C)C)NC(=O)CNC(=O)[C@H](Cc2ccccc2)NC(=O)[C@@H](NC(=O)CNC(=O)[C@H](CO)NC(=O)[C@H](CO)NC(=O)[C@@H](NC(=O)CNC(=O)[C@@H](NC(=O)[C@H](CCCCN)NC(=O)[C@H](CCC(N)=O)NC(=O)[C@H](C)NC(=O)CNC(=O)[C@H](Cc2c[nH]cn2)NC(=O)[C@H](Cc2ccc(O)cc2)NC(=O)COCCOCCNC(=O)COCCOCCNC(=O)COCCOCCNC(=O)CC[C@H](NC(=O)CCCCCCCCCCCCCCCCC(=O)O)C(=O)O)[C@@H](C)O)C(C)C)CSSC[C@@H](C(=O)O)NC(=O)CNC(=O)[C@H](CC(C)C)NC(=O)CNC(=O)[C@H](CO)NC(=O)[C@H](CC(C)C)NC(=O)[C@H](CO)NC(=O)CNC1=O [compound 1352] ({C18 diacid-γGlu-AEEA-AEEA-AEEA}-YHGAQKTGVSSGCFGLPLDRIGSLSGLGC-OH; disulfide 13-29) | 38.6
4 | CC[C@H](C)[C@@H]1NC(=O)[C@H](CCCNC(=N)N)NC(=O)[C@H](CC(=O)O)NC(=O)[C@H](CC(C)C)NC(=O)[C@@H]2CCCN2C(=O)[C@H](CC(C)C)NC(=O)CNC(=O)[C@H](Cc2ccccc2)NC(=O)[C@@H](NC(=O)CNC(=O)[C@H](CO)NC(=O)[C@H](CO)NC(=O)[C@H](CC(C)C)NC(=O)CNC(=O)[C@H](CCCCN)NC(=O)[C@H](CCCCN)NC(=O)[C@H](CCC(N)=O)NC(=O)[C@H](C)NC(=O)CNC(=O)[C@H](CCC(=O)O)NC(=O)[C@H](Cc2ccc(O)cc2)NC(=O)[C@H](CO)NC(=O)[C@H](CCCNC(=N)N)NC(=O)[C@H](C)NC(=O)[C@H](CCC(N)=O)NC(=O)[C@@H]2CCCN2C(=O)[C@H](Cc2c[nH]cn2)NC(=O)[C@H](CCC(=O)O)NC(=O)[C@H](CCC(N)=O)NC(=O)COCCOCCNC(=O)COCCOCCNC(=O)CC[C@H](NC(=O)CCCCCCCCCCCCCCCCC(=O)O)C(=O)O)CSSC[C@@H](C(=O)O)NC(=O)CNC(=O)[C@H](CC(C)C)NC(=O)CNC(=O)[C@H](CO)NC(=O)[C@H](CC(C)C)NC(=O)[C@H](CO)NC(=O)CNC1=O [compound 1379] ({C18 diacid-γGlu-AEEA-AEEA}-QEHPQARSYEGAQKKGLSSGCFGLPLDRIGSLSGLGC-OH; disulfide 21-37; C-terminus assumed) | 33.5
5 | CC[C@H](C)[C@@H]1NC(=O)[C@H](CCCNC(=N)N)NC(=O)[C@H](CC(=O)O)NC(=O)[C@H](CC(C)C)NC(=O)[C@@H]2CCCN2C(=O)[C@H](CC(C)C)NC(=O)CNC(=O)[C@H](Cc2ccccc2)NC(=O)[C@@H](NC(=O)CNC(=O)[C@H](CCC(N)=O)NC(=O)[C@H](CO)NC(=O)[C@H](CC(C)C)NC(=O)CNC(=O)[C@H](CCCCN)NC(=O)[C@H](CCCCN)NC(=O)[C@H](CCC(N)=O)NC(=O)[C@H](C)NC(=O)CNC(=O)[C@H](CCCCN)NC(=O)[C@H](Cc2ccc(O)cc2)NC(=O)COCCOCCNC(=O)COCCOCCNC(=O)COCCOCCNC(=O)COCCOCCNC(=O)CC[C@H](NC(=O)CC[C@H](NC(=O)CCCCCCCCCCCCCCCCC(=O)O)C(=O)O)C(=O)O)CSSC[C@@H](C(=O)O)NC(=O)CNC(=O)[C@H](CC(C)C)NC(=O)CNC(=O)[C@H](CO)NC(=O)[C@H](CC(C)C)NC(=O)[C@H](CO)NC(=O)CNC1=O [compound 1478] ({C18 diacid-γGlu-γGlu-AEEA-AEEA-AEEA-AEEA}-YKGAQKKGLSQGCFGLPLDRIGSLSGLGC-OH; disulfide 13-29; C-terminus assumed) | 26.6
6 | CC[C@H](C)[C@@H]1NC(=O)[C@H](CCCNC(=N)N)NC(=O)[C@H](CC(=O)O)NC(=O)[C@H](CC(C)C)NC(=O)[C@@H]2CCCN2C(=O)[C@H](CC(C)C)NC(=O)CNC(=O)[C@H](Cc2ccccc2)NC(=O)[C@@H](NC(=O)CNC(=O)[C@H](CO)NC(=O)[C@H](CO)NC(=O)[C@H](CC(C)C)NC(=O)CNC(=O)[C@H](CCCCN)NC(=O)[C@H](CCCCN)NC(=O)[C@H](CCC(N)=O)NC(=O)[C@H](C)NC(=O)CNC(=O)[C@H](Cc2c[nH]cn2)NC(=O)[C@H](CCC(=O)O)NC(=O)COCCOCCNC(=O)COCCOCCNC(=O)CC[C@H](NC(=O)CCCCCCCCCCCCCCCCC(=O)O)C(=O)O)CSSC[C@@H](C(=O)O)NC(=O)CNC(=O)[C@H](CC(C)C)NC(=O)CNC(=O)[C@H](CO)NC(=O)[C@H](CC(C)C)NC(=O)[C@H](CO)NC(=O)CNC1=O [compound 1310] ({C18 diacid-γGlu-AEEA-AEEA}-EHGAQKKGLSSGCFGLPLDRIGSLSGLGC-OH; disulfide 13-29) | 10.4
7 | CC[C@H](C)[C@@H]1NC(=O)[C@H](CCCNC(=N)N)NC(=O)[C@H](CC(=O)O)NC(=O)[C@H](CC(C)C)NC(=O)[C@@H]2CCCN2C(=O)[C@H](CC(C)C)NC(=O)CNC(=O)[C@H](Cc2ccccc2)NC(=O)[C@@H](NC(=O)CNC(=O)[C@H](CCCCN)NC(=O)[C@H](CO)NC(=O)[C@H](CC(C)C)NC(=O)CNC(=O)[C@H](CCCCN)NC(=O)[C@H](CCCCN)NC(=O)[C@H](CCC(N)=O)NC(=O)[C@H](C)NC(=O)CNC(=O)[C@H](CCC(=O)O)NC(=O)[C@H](Cc2ccc(O)cc2)NC(=O)COCCOCCNC(=O)COCCOCCNC(=O)COCCOCCNC(=O)COCCOCCNC(=O)CC[C@H](NC(=O)CCCCCCCCCCCCCCCCC(=O)O)C(=O)O)CSSC[C@@H](C(=O)O)NC(=O)CNC(=O)[C@H](CC(C)C)NC(=O)CNC(=O)[C@H](CO)NC(=O)[C@H](CC(C)C)NC(=O)[C@H](CO)NC(=O)CNC1=O [compound 1375] ({C18 diacid-γGlu-AEEA-AEEA-AEEA-AEEA}-YEGAQKKGLSKGCFGLPLDRIGSLSGLGC-OH; disulfide 13-29; C-terminus assumed) | 16.2
8 | CC[C@H](C)[C@@H]1NC(=O)[C@H](CCCNC(=N)N)NC(=O)[C@H](CC(=O)O)NC(=O)[C@H](CC(C)C)NC(=O)[C@@H]2CCCN2C(=O)[C@H](CC(C)C)NC(=O)CNC(=O)[C@H](Cc2ccccc2)NC(=O)[C@@H](NC(=O)CNC(=O)[C@H](CCC(N)=O)NC(=O)[C@H](CO)NC(=O)[C@H](CC(C)C)NC(=O)CNC(=O)[C@H](CCCCN)NC(=O)[C@H](CCCCN)NC(=O)[C@H](CCC(N)=O)NC(=O)[C@H](C)NC(=O)CNC(=O)[C@H](CCCCN)NC(=O)[C@H](Cc2ccc(O)cc2)NC(=O)[C@H](CCCCN)NC(=O)[C@H](CCCNC(=N)N)NC(=O)[C@H](C)NC(=O)[C@H](CCC(N)=O)NC(=O)[C@@H]2CCCN2C(=O)[C@H](Cc2c[nH]cn2)NC(=O)[C@H](CCC(=O)O)NC(=O)[C@H](CCC(N)=O)NC(=O)COCCOCCNC(=O)COCCOCCNC(=O)CC[C@H](NC(=O)CC[C@H](NC(=O)CC[C@H](NC(=O)CC[C@H](NC(=O)CC[C@H](NC(=O)CC[C@H](NC(=O)CCCCCCCCCCCCCCCCC(=O)O)C(=O)O)C(=O)O)C(=O)O)C(=O)O)C(=O)O)C(=O)O)CSSC[C@@H](C(=O)O)NC(=O)CNC(=O)[C@H](CC(C)C)NC(=O)CNC(=O)[C@H](CO)NC(=O)[C@H](CC(C)C)NC(=O)[C@H](CO)NC(=O)CNC1=O [compound 1402] ({C18 diacid-γGlu-γGlu-γGlu-γGlu-γGlu-γGlu-AEEA-AEEA}-QEHPQARKYKGAQKKGLSQGCFGLPLDRIGSLSGLGC-OH; disulfide 21-37) | 57.6
